Columns and labels:
Format in all cases: cell-based
[1] = tested on: Human ES cell lines KhES-1; assay: Subculture of human ES cells in medium comprising a GSK3β inhibitor and a DYRK inhibitor, cell observation; conditions: KhES-1, no feeder cells, vitronectin-N-coated dish; for maintenance of the ES cells (stability), among the GSK3β inhibitors: combined with DYRK inhibitor ID-8 500 nM, 1-azakenpaullone 750 nM, kenpaullone 500 nM
Description: 25 mL of a solution in which a powder DMEM/F-12 medium (D0547, produced by Sigma-Aldrich) had been diluted two-fold with water, 1.4 mL of 6% sodium hydrogen carbonate solution, 0.75 mL of 1 M HEPES solution, 0.045 mL of 0.23 M ascorbic acid solution, 0.9 ML of ITS (Insulin-Transferrin-Selenium: 1 mg/ml-0.55 mg/ml-0.7 μg/ml) solution (ITS-G 41400-045, produced by Life Technologies), and 16.905 mL of water were mixed to obtain 45 mL of basal medium (340 mOsm, pH 7.2 to 7.5).
A GSK3β inhibitor (1-azakenpaullone (A3734, produced by Sigma-Aldrich), kenpaullone (1094-1, produced by BioVision), CHIR99021 (1386, produced by Axon Medchem), or BIO (B1686, produced by Sigma-Aldrich)), and a DYRK inhibitor (ID-8 (11786, produced by Sigma-Aldrich), harmine (Ser. No. 10/010,324, produced by Cayman Chemical), an indirubin analog 716 (6i) (ACS Medicinal Chemistry Letters, 2013, vol. 4, no. 1, pp. 22-26), INDY (405273, produced by Merck Millipore Corporation), L41 (MR-00023, produced by AdipoGen), or TG003 (4336, produced by R&D Systems)) were each added singly or in combination to the basal medium to thereby obtain a medium. The following are final concentrations in the medium.
Human ES cell lines KhES-1 (provided by Riken BioResource Center) were subcultured in the above medium. More specific details are below. The following culture was performed in the absence of feeder cells in a dish (vitronectin-N-coated dish) in which coating treatment was performed overnight using 1 μg of vitronectin-N (A14700 produced by Life Technologies) per 1 cm^2 of the culture dish.
ES cell colonies cultured in accordance with a standard method using a general-purpose medium for human ES cells (20% knockout serum replacement (10828-028, produced by Life Technology), 4 ng/ml of FGF2 (100-18B, produced by Peprotech)/DMEM/F-12 medium (11330-032, produced by Life Technology)) were rinsed once with PBS. A dispase solution (10 mg/ml dispase (Ser. No. 17/105,041, produced by Life Technologies)/DMEM/F-12) was added thereto so as to cover the cells, followed by being left to stand for 5 minutes. […]

[2] = tested on: Human ES cell lines KhES-1; assay: Fold increase of cells within 6 days without passage
Description: (§1) A medium further comprising an NFAT inhibitor (tacrolimus (FK-506) (1007965, produced by Cayman Chemical)), in addition to a GSK3β inhibitor (1-azakenpaullone or kenpaullone) and a DYRK inhibitor (ID-8), was prepared as in Example 1. Using this medium, subculture and cell observation were performed as in Example 1. Separately from this, passage P1 was performed using this medium, as in Example 1, followed by culturing for 6 days without performing passage. Thereafter, the number of the cells was counted in accordance with a standard method, and, based on the counted number of cells, how many times the number of the cells increased within 6 days was calculated.

[3] = tested on: Human ES cell lines KhES-1; assay: Subculture and cell observation in medium further comprising an NFAT inhibitor; conditions: tacrolimus added in addition to azakenpaullone and ID-8, FIG. 3A
Description: as §1

Compound: COc1ccc(-n2c(C)c([N+](=O)[O-])c3ccc(O)cc32)cc1 [ID-8]
- maintenance of the ES cells (stability), among the DYRK inhibitors ([1]; combined with 1-azakenpaullone 750 nM, ID-8 500 nM): most stable manner

Compound: O=C1Cc2c([nH]c3ccc(Br)cc23)-c2ncccc2N1 [1-azakenpaullone]
- cell growth (fold increase of the cells), comparison of GSK3β inhibitors ([2]; GSK3β inhibitor with ID-8 and tacrolimus, FIG. 3B): accelerates the cell growth more than kenpaullone
- maintenance of the ES cells (stability), among the GSK3β inhibitors [1]: most stable manner

Compound: C=CC[C@@H]1/C=C(\C)C[C@H](C)C[C@H](OC)[C@H]2O[C@@](O)(C(=O)C(=O)N3CCCC[C@H]3C(=O)O[C@H](/C(C)=C/[C@@H]3CC[C@@H](O)[C@H](OC)C3)[C@H](C)[C@@H](O)CC1=O)[C@H](C)C[C@@H]2OC [tacrolimus]
- cell growth (fold increase of the cells) ([2]; tacrolimus added in addition to azakenpaullone and ID-8, FIG. 3B): notably accelerated
- maintenance of ES cells in an undifferentiated state [3]: ES cells are maintained in an undifferentiated state

Compound: O=C1Cc2c([nH]c3ccc(Br)cc23)-c2ccccc2N1 [kenpaullone]
- maintenance of the ES cells (stability), among the GSK3β inhibitors [1]: most stable manner
